Measured values as given in patent publication US20150309031A2, “COMPOSITIONS AND METHODS FOR PROGNOSIS AND TREATMENT OF CANCER” (NOVAZOI THERANOSTICS, priority 2013, published 2015).

Columns and labels:
Format in all cases: cell-based
[1] = system: PC3 cells; test: subG1 (hypodiploid) fraction by flow cytometry, PC3 cells
Procedure: (§1) Trypsinized cells were resuspended in PBS at 10^6 cells/ml. Cells were then fixed by addition of ice-cold 70% ethanol. Ethanol-fixed cells were kept overnight at 4° C. before staining. Cells were pelleted and washed twice with PBS. Cell pellets were incubated for an hour at room temperature with mouse anti-MPM-2 antibody (Millipore, Mass., USA), followed by 1 h incubation with Alexa-488 anti-mouse secondary antibody (Life Technologies, NY, USA). Finally cells were washed, pelleted and resuspended in propidium iodide-containing isotonic buffer (0.1 mg/mL) and 0.5% Triton X-100. Cell cycle distribution was determined by flow cytometry using an LSR Fortessa Flow cytometer (BD Biosciences, CA, USA) and analyzed using Flowjo software (Tree Star, OR, USA). […] The duration, highest degree, and rapidity of onset of MA varied between drugs, drug concentrations, and cell lines (FIGS. 2A, 2B). In general, the maximum MA achieved was less pronounced in Nos- and PJ-treated cells (FIGS. 2A, 2B). Drug-induced onset of MA was corroborated by substantial increases in cyclin B1 levels in all cell lines (FIG. 2C). […] Instances where the subG1 fraction was elevated without cleaved caspase-3 may either represent caspase-independent cell death or the presence of hypodiploid cells whose fate is unclear.

[2] = system: HeLa cells; test: subG1 (hypodiploid) fraction by flow cytometry, HeLa cells
Procedure: as §1

[3] = system: mammary fibrocystic (MCF10A) cells; test: subG1 (hypodiploid) fraction by flow cytometry, MCF10A cells; conditions: for change of peak subG1 percent compared to controls (in words): MCF10A cells; for Peak subG1 percent over 48 h: MCF10A
[4] = system: human dermal fibroblasts (HDFs); test: Centrosome amplification (CA) by microscopy, HDFs
Procedure: (§2) Consequently, CA was assessed in cultures treated with different concentrations of declustering drugs for 6, 12, 18, or 24 h and untreated controls via microscopy. Centrosomes were identified by γ-tubulin and centrin-2 colocalization at discrete foci. […] The peak percent CA detected over 24 h is shown in FIG. 6 (only statistically significant (P<0.05) increases over control values are represented in the Figures). Representative confocal micrographs of CA in interphase and mitotic cells, both control and drug treated, are depicted in FIG. 7. No significant correlations between the degree of CA (FIG. 5A) and the expression levels of PLK4, Cyclin E, and Aurora A were found (FIG. 4).
(§3) To determine whether the CA-inducing activity of declustering drugs is restricted to cancer cells, two non-malignant cell lines, mammary fibrocystic (MCF10A) cells and adult human dermal fibroblasts were treated with these drugs. Neither one of RBN, GF or PJ induced CA or cell death (Table 8) in these cell lines. […] In comparison, 10 and 25 μM RBN increased peak CA over controls in interphase cells (p<0.001 and p=0.001, respectively), with the lower concentration dramatically augmenting peak CA to 56% of cells versus 15% for the higher dose (FIG. 9B). Only 10 but not 25 μM RBN increased the extent of CA in mitotic cells, and this upregulation was only slight (10%, p=0.041).

[5] = system: MDA-MB-231 (231) cells; test: subG1 (hypodiploid) fraction by flow cytometry, 231 cells
Procedure: as §1

[6] = system: MCF10A cells; test: Centrosome amplification (CA) by microscopy, MCF10A cells
Procedure: as §2, §3

[7] = system: HDFs and MCF10A cells; test: Spindle multipolarity (MP) in non-malignant cell lines
[8] = system: adult human dermal fibroblasts (HDF); test: subG1 (hypodiploid) fraction by flow cytometry, HDFs
[9] = system: 231 cells; test: Centrosome amplification (CA) by microscopy, 231 cells; conditions: 25 μM
Procedure: Consequently, CA was assessed in cultures treated with different concentrations of declustering drugs for 6, 12, 18, or 24 h and untreated controls via microscopy. […] The peak percent CA detected over 24 h is shown in FIG. 6 (only statistically significant (P<0.05) increases over control values are represented in the Figures). Representative confocal micrographs of CA in interphase and mitotic cells, both control and drug treated, are depicted in FIG. 7. […] To better understand the “potency” of drug-induced CA with time, the average fold change in CA over controls over 24 h was assessed (FIG. 5A), whereby the extent of CA across time points (i.e., 6, 12, 18, and 24 h) was averaged and then divided by the extent of CA in control (i.e., 0 h). […] For Nos and BN, there was no major difference in CA levels in interphase versus mitotic cells.

COC1=CC(=O)C[C@@H](C)[C@]12Oc1c(Cl)c(OC)cc(OC)c1C2=O [GF, griseofulvin]
Peak subG1 percent over 48 h ([1]; 25 μM): 33.7%
Peak subG1 percent over 48 h ([1]; 50 μM): 39.5%
maximum subG1 fraction relative to control ([1]; 50 μM): 16.3 × control
Peak subG1 percent over 48 h ([2]; 25 μM): 59.5%
Peak subG1 percent over 48 h ([2]; 50 μM): 79.0%
maximum subG1 fraction relative to control ([2]; 50 μM): 4.3 × control
change of peak subG1 percent compared to controls (in words) [3]: did increase peak SubG1 in MCF10A cells compared to controls
Peak subG1 percent over 48 h ([3]; 25 μM): 22.7%
Peak subG1 percent over 48 h ([3]; 50 μM): 35.1%
peak CA in interphase cells ([4]; interphase, 25 and 50 μM): 14-15%
Peak subG1 percent over 48 h ([5]; 25 μM): 62.0%
maximum subG1 fraction relative to control ([5]; 25 μM): 6.4 × control
Peak subG1 percent over 48 h ([5]; 50 μM): 60.0%
peak interphase CA ([6]; interphase, 25 and 50 μM): 13-16%
change of CA in mitotic cells (in words) ([6]; mitotic, 25 and 50 μM): no increase was observed in mitotic cells
induction of MP over control levels [7]: significantly induce MP over control levels
Peak subG1 percent over 48 h ([8]; 25 μM): 32.9%
Peak subG1 percent over 48 h ([8]; 50 μM): 38.3%

COc1ccc2c(c1OC)C(=O)O[C@@H]2[C@H]1c2c(cc3c(c2OC)OCO3)CCN1C [Nos, noscapine]
Peak subG1 percent over 48 h ([1]; 10 μM): 29.9%
Peak subG1 percent over 48 h ([1]; 25 μM): 32.7%
Peak subG1 percent over 48 h ([2]; 10 μM): 25.0%
Peak subG1 percent over 48 h ([2]; 25 μM): 50.1%
change of peak subG1 percent compared to controls (in words) [3]: did not cause a significant increase in peak subG1 percent compared to controls
Peak subG1 percent over 48 h ([3]; 10 μM): 4.1%
Peak subG1 percent over 48 h ([3]; 25 μM): 4.2%
change of CA over controls (in words) ([4]; any concentration or time point assessed): did not significantly increase the extent of CA over controls
Peak subG1 percent over 48 h ([5]; 10 μM): 26.3%
Peak subG1 percent over 48 h ([5]; 25 μM): 43.9%
induction of significant CA [9]: failed to induce significant CA
change of CA over control levels (in words) ([6]; interphase and mitotic cells, over 24 h): neither concentrations of Nos or BN significantly increased CA over control levels
Peak subG1 percent over 48 h ([8]; 10 μM): 14.8%
Peak subG1 percent over 48 h ([8]; 25 μM): 11.2%
